In article PMC5053573, “Structure-Based Design of Tetrahydroisoquinoline-7-carboxamides as Selective Discoidin Domain Receptor 1 (DDR1) Inhibitors” (Journal of Medicinal Chemistry, 2016):

How the values were obtained:
Test in all cases: biochemical
Settings in all cases: read-out: %Ctrl @ 1000nM
CDK8 = CDK8 (Homo sapiens, UniProt P49336)
EGFR = EGFR (Homo sapiens, UniProt P00533)
RIPK1 = RIPK1 (Homo sapiens, UniProt Q13546)
PKAC-alpha = molecular target: T1, PKAC-alpha (Homo sapiens, UniProt P17612)
T1 construct: gene PRKACA

SRC = SRC (Homo sapiens, UniProt P12931)
PAK1 = PAK1 (Homo sapiens, UniProt Q13153)
PAK3 = PAK3 (Homo sapiens, UniProt O75914)
Sequence of PAK3 (O75914 whole entry): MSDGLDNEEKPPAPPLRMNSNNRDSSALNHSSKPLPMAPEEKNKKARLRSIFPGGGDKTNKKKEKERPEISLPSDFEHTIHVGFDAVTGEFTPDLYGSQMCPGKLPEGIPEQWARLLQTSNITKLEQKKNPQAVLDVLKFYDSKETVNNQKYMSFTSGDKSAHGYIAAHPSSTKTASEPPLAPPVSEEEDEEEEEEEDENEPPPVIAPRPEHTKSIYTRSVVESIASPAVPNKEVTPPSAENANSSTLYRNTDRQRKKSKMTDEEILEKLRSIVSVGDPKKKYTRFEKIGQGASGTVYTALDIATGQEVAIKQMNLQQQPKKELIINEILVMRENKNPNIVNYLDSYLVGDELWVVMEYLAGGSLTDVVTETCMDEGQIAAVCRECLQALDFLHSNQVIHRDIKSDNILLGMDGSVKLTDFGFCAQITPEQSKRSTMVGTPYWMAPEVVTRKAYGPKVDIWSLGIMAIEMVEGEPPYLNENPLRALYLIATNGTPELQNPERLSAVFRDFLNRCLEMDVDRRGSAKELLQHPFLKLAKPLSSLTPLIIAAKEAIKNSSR

[1] = molecular target: EGFR(L747-E749del, A750P) (Homo sapiens, UniProt P00533, A750P/DEL747-749)
[2] = molecular target: JAK3(JH1domain-catalytic) (Homo sapiens, UniProt P52333)
[3] = molecular target: RPS6KA5(Kin.Dom.2-C-terminal) (Homo sapiens, UniProt O75582)
MARK3 = MARK3 (Homo sapiens, UniProt P27448)
MAP4K5 = MAP4K5 (Homo sapiens, UniProt Q9Y4K4)
RIOK3 = RIOK3 (Homo sapiens, UniProt O14730)
Sequence of RIOK3 (O14730 whole entry): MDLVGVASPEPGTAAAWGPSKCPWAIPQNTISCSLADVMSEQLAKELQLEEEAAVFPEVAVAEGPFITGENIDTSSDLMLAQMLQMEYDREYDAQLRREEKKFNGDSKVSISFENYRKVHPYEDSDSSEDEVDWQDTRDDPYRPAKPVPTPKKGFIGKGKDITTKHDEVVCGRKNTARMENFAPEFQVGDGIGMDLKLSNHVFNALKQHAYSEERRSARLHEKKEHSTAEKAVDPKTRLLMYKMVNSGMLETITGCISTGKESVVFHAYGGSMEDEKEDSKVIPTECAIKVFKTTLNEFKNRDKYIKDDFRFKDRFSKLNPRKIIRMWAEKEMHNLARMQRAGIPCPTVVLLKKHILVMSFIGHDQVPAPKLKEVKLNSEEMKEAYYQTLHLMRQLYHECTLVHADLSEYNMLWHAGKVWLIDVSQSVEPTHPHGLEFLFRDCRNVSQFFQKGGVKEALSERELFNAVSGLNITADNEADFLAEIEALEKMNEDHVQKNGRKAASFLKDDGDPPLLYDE

ROS1 = ROS1 (Homo sapiens, UniProt P08922)
CAMK2G = CAMK2G (Homo sapiens, UniProt Q13555)
PIK3C2G = PIK3C2G (Homo sapiens, UniProt O75747)
MARK1 = MARK1 (Homo sapiens, UniProt Q9P0L2)
CDK9 = CDK9 (Homo sapiens, UniProt P50750)
PRP4 = molecular target: T2, PRP4 (Homo sapiens, UniProt Q13523)
T2 construct: gene PRPF4B
T2 sequence (Q13523 whole entry): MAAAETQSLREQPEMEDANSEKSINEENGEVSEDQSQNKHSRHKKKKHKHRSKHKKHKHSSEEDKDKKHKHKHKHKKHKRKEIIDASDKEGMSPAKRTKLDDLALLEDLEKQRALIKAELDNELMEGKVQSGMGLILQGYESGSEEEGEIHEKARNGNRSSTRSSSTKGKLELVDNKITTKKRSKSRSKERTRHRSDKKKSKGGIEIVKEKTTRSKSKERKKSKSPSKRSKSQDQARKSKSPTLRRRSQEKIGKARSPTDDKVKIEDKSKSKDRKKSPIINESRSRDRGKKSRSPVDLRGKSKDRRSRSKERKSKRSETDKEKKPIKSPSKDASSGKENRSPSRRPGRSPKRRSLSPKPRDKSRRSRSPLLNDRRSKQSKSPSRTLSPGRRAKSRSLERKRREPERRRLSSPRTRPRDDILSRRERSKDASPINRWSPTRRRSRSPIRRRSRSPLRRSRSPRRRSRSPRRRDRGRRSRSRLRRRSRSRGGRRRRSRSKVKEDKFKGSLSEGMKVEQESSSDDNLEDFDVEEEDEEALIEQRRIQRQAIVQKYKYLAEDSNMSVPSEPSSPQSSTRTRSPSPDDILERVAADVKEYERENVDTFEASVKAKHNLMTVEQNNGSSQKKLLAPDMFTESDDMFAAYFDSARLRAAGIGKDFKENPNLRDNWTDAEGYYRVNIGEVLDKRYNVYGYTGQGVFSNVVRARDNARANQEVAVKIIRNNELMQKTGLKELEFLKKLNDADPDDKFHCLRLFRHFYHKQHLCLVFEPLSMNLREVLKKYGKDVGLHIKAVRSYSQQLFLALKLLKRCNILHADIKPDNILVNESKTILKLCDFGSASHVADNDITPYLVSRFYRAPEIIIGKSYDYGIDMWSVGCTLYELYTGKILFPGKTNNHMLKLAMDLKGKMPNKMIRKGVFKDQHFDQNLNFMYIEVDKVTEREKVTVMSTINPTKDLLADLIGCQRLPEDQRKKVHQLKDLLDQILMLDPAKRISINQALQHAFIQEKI

EGFR(L861Q) = EGFR(L861Q) (Homo sapiens, UniProt P00533, L861Q)
AAK1 = AAK1 (Homo sapiens, UniProt Q2M2I8)
[4] = molecular target: T3, RSK1(Kin.Dom.1-N-terminal) (Homo sapiens, UniProt Q15418)
T3 construct: gene RPS6KA1

ERK3 = molecular target: T4, ERK3 (Homo sapiens, UniProt Q16659)
T4 construct: gene MAPK6

CSNK2A1 = CSNK2A1 (Homo sapiens, UniProt P68400)
MAP3K1 = MAP3K1 (Homo sapiens, UniProt Q13233)
ANKK1 = ANKK1 (Homo sapiens, UniProt Q8NFD2)
Sequence of ANKK1 (Q8NFD2 whole entry): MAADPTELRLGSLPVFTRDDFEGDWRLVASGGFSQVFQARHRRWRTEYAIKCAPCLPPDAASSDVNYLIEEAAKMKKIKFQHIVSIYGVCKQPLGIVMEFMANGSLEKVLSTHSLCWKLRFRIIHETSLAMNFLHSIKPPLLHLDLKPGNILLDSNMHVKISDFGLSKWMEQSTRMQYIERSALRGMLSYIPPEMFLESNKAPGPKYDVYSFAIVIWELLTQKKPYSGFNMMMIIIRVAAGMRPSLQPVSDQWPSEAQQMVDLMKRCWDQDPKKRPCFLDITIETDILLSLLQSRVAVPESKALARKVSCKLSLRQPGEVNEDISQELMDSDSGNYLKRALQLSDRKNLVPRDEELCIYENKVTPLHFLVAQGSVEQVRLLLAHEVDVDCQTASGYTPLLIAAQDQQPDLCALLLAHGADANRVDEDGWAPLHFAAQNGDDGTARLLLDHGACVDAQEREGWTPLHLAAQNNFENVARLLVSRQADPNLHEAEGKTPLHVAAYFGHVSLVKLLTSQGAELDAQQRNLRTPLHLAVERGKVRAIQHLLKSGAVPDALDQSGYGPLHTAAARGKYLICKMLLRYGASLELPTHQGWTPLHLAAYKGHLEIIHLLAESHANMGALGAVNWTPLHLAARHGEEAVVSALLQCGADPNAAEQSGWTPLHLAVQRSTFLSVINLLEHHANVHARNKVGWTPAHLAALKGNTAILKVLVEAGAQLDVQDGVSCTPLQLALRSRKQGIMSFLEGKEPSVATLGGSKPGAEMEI

FLT3(ITD,D835V) = FLT3(ITD,D835V) (Homo sapiens, UniProt P36888, D835V/ITD)
MLCK = molecular target: T5, MLCK (Homo sapiens, UniProt Q32MK0)
T5 construct: gene MYLK3
T5 sequence (Q32MK0 whole entry): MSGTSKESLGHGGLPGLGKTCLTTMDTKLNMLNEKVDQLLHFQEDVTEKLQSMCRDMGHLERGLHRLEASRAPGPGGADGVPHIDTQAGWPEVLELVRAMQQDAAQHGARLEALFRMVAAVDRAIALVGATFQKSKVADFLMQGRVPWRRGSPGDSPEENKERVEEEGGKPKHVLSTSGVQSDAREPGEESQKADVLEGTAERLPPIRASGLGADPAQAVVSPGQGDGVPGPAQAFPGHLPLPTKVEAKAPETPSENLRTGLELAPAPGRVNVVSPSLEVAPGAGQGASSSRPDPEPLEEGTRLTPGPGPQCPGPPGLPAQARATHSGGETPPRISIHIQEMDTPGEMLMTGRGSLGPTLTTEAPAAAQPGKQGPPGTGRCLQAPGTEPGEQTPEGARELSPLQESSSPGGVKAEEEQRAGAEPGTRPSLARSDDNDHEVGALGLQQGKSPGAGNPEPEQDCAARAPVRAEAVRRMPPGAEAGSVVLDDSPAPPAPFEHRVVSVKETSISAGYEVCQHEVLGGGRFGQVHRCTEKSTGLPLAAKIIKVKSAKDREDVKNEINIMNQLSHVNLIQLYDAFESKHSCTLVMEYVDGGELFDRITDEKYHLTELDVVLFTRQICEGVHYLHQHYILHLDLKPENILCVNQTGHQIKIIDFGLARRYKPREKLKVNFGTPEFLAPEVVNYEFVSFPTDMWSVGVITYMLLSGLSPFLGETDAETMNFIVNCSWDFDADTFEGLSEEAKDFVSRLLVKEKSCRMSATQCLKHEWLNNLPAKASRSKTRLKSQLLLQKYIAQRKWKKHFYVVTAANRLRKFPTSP

CDK4 = CDK4 (Homo sapiens, UniProt P11802)
Sequence of CDK4 (P11802 whole entry): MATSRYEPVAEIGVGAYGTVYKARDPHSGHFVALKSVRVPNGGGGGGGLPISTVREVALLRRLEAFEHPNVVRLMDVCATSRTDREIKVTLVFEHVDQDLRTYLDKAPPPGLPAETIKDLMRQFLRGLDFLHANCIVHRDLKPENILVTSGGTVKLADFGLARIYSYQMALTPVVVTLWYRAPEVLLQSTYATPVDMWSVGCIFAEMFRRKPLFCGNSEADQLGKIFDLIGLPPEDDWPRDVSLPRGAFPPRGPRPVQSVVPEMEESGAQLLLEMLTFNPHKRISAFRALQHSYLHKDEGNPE

SYK = SYK (Homo sapiens, UniProt P43405)
ASK1 = molecular target: T6, ASK1 (Homo sapiens, UniProt Q99683)
T6 construct: gene MAP3K5

PIK3CA(Q546K) = PIK3CA(Q546K) (Homo sapiens, UniProt P42336, Q546K)
Sequence of PIK3CA(Q546K) (P42336 whole entry Q546K): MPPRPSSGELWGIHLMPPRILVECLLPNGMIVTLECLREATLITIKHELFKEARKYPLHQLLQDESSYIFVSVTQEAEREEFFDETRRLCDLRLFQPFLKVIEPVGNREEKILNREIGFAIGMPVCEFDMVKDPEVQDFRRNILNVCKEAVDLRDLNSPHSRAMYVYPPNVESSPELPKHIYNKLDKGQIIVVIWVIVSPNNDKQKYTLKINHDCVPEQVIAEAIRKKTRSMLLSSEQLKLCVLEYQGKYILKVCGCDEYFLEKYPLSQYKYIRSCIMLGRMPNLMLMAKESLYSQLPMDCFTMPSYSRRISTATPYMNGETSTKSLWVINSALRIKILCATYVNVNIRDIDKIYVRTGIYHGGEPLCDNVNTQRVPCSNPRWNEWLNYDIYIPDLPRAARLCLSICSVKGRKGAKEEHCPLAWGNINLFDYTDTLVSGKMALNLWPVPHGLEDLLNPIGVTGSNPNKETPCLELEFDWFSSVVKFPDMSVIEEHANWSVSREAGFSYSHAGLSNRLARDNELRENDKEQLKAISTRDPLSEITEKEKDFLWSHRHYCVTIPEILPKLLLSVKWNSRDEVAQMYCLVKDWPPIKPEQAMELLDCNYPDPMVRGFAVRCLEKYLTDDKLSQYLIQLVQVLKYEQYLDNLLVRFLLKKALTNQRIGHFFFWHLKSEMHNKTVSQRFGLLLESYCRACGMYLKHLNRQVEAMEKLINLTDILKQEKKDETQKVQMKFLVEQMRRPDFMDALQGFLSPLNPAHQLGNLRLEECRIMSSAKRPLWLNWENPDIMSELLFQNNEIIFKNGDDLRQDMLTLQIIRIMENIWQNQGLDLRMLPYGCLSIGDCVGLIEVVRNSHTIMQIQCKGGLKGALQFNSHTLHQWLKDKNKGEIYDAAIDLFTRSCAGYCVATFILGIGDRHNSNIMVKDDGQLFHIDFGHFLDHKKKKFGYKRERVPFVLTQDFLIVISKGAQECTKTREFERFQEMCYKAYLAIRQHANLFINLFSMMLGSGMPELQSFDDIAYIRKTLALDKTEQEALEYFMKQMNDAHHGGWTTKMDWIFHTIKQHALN

AKT2 = AKT2 (Homo sapiens, UniProt P31751)
PRKD1 = PRKD1 (Homo sapiens, UniProt Q15139)
IKK-beta = molecular target: T7, IKK-beta (Homo sapiens, UniProt O14920)
T7 construct: gene IKBKB

With Cc1cn(-c2cc(NC(=O)c3ccc4c(c3)CN(c3cncnc3)C[C@@H]4C)cc(C(F)(F)F)c2)cn1 [Compound 6j] the remaining activity at 1 µM (CDK8) was 37%, the remaining activity at 1 µM (EGFR) was 94% and the remaining activity at 1 µM (RIPK1) was 98%. For the same compound, the remaining activity at 1 µM (PKAC-alpha) was 87%, the remaining activity at 1 µM (SRC) was 94% and the remaining activity at 1 µM (PAK1) was 84%. For the same compound, the remaining activity at 1 µM (PAK3) was 79%, the remaining activity at 1 µM [1] was 92% and the remaining activity at 1 µM [2] was 100%. For the same compound, the remaining activity at 1 µM [3] was 100%, the remaining activity at 1 µM (MARK3) was 94% and the remaining activity at 1 µM (MAP4K5) was 95%. The remaining activity at 1 µM (RIOK3) was 100%, the remaining activity at 1 µM (ROS1) was 86% and the remaining activity at 1 µM (CAMK2G) was 63%. The remaining activity at 1 µM (PIK3C2G) was 86%, the remaining activity at 1 µM (MARK1) was 74% and the remaining activity at 1 µM (CDK9) was 92%. The remaining activity at 1 µM (PRP4) was 100%, the remaining activity at 1 µM (EGFR(L861Q)) was 97% and the remaining activity at 1 µM (AAK1) was 77%. It also gave a remaining activity at 1 µM [4] of 96%, a remaining activity at 1 µM (ERK3) of 96% and a remaining activity at 1 µM (CSNK2A1) of 100%. For the same compound, the remaining activity at 1 µM (MAP3K1) was 95%, the remaining activity at 1 µM (ANKK1) was 63% and the remaining activity at 1 µM (FLT3(ITD,D835V)) was 23%. The remaining activity at 1 µM (MLCK) was 92%, the remaining activity at 1 µM (CDK4) was 98% and the remaining activity at 1 µM (SYK) was 93%. It also gave a remaining activity at 1 µM (ASK1) of 92%, a remaining activity at 1 µM (PIK3CA(Q546K)) of 100% and a remaining activity at 1 µM (AKT2) of 100%. It also gave a remaining activity at 1 µM (PRKD1) of 95% and a remaining activity at 1 µM (IKK-beta) of 100%.
